According to patent US4753984A (priority 1985, dated 1988):

Key:
3 LL cells = experiment: In vivo antitumor activity on mice implanted with 3 LL cells (tumor growth and survival); parameters: species or system C 57 BL/6 male mice; conditions: for inhibition of tumor growth relative to the control lot: Daunorubicin 7x10 micrograms, polymer 8x200 microgram equivalents of Daunorubicin (i.v. days 2, 6, 10, i.p. days 14-30), FIG. 4
Experimental: The in vivo antitumor activity of the macromolecular drugs is evaluated on C 57 BL/6 male mice aged a total of about 10 weeks. 10^5 3 LL cells are implanted in each mouse by intramuscular injection of 100 microliters of a cellular suspension of 10^6 cells/ml in the right posterior paw.
One lot of 10 mice, serving as a control, is injected with 7×100 microliters of physiologic serum.
One lot of 10 mice is treated with 7×10 micrograms of free Daunorubicin (dosage limited due to the toxicity of the free drug).
After intramuscular injection of the tumoral cells, the macromolecular prodrug is injected intravenously at days 2, 6 and 10, then intraperitoneally at days 14, 18, 22, 26 and 30.
Two parameters are recorded to evaluate the in vivo antitumoral activity: the inhibition of tumor growth and animal survival.

[1] = Localization of radiolabelled Daunorubicin drugs in organs of 3 LL tumor-bearing mice; conditions: i.v. 100 micrograms Daunorubicin equivalent, 48 or 72 hours after injection
Experimental: The radiolabelled Daunorubicin drugs (14-^14 C) are injected intravenously 14 days after implantation of 10^5 3 LL cells. Either 100 micrograms of free Daunorubicin (5×10^5 cpm), or 100 micrograms of Daunorubicin in macromolecular form (5×10^5 cpm) is injected. Localization is measured after the intravenous injection of various products.
The mice are sacrificed by cervical elongation 48 hours or 72 hours after injection. The organs are removed, dissolved by a tissue solubilizing agent (NCS Amersham) at a rate of 200 mg to 300 mg of organ/ml of solubilizing agent, then counted in a liquid scintillant. […] The results are recapitulated in FIG. 3.

[2] = comparison value, source not given; cited from earlier work
chymotrypsin = chymotrypsin (Bos taurus, UniProt P00766); experiment: Proteolyse in vitro: chymotrypsic hydrolyse, liberated daunorubicin derivative analysed by thin layer chromatography; format: biochemical; conditions: Tris-HCl buffer 0.05 M, CaCl2 10 mM, pH 8.0; TLC analysis
Experimental: The chymotrypsic hydrolyse is effected in a Tris-HCl buffer 0.05 M, CaCl2 10 mM at pH=8.0.
On analysis, the derivatives of the daunorubicin are liberated after enzymatic hydrolysis, by thin layer chromatography.

trypsin = biological target: T1, trypsin (Bos taurus, UniProt P00760); experiment: Proteolyse in vitro: trypsic hydrolysis, liberated daunorubicin derivative analysed by thin layer chromatography; format: biochemical; conditions: 0.1M sodium bicarbonate, CaCl2 10 mM, pH 8.7; TLC analysis
T1 construct: gene PRSS1
T1 sequence (P00760 24-246): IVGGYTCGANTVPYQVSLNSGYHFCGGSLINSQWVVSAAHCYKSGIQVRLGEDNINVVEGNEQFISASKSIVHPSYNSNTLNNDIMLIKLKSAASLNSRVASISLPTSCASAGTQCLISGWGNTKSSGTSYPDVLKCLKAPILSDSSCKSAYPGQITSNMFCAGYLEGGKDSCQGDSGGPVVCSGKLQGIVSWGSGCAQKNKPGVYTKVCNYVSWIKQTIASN
Experimental: On analysis, the derivatives of the daunorubicin are liberated after enzymatic hydrolysis, by thin layer chromatography. For example:
Trypsic hydrolysis is carried out in a 0.1M solution of sodium bicarbonate, CaCl2, 10 mM at pH, 8.7.

For `COc1cccc2c1C(=O)c1c(O)c3c(c(O)c1C2=O)C[C@@](O)(C(C)=O)C[C@@H]3O[C@H]1C[C@H](N)[C@H](O)[C@H](C)O1` [Daunorubicin], the “inhibition of tumor growth relative to the control lot” value (3 LL cells) was “does not influence in a significant manner tumoral growth”, the “radioactivity of the spleen” value [1] was “significant accumulation of the radioactivity” and the “spleen mass / atrophy” value [1] was “severe atrophy of the spleen”.

For `COc1cccc2c1C(=O)c1c(O)c3c(c(O)c1C2=O)C[C@@](O)(C(=O)CO)C[C@@H]3O[C@H]1C[C@H](N)[C@H](O)[C@H](C)O1` [adriamycin], the “time to disappear from plasma” value [2] is given as 20 min.

With “polycarboxylated linear polymer of 2-N-acryloylamino-2-hydroxymethyl-1,3-propanediol substituted by the -Gly-Gly-L-Tyr-Daunorubicin sequence [Example 1]” the “derivative of daunorubicin liberated after chymotrypsic hydrolysis” value (“derivative … after chymotrypsic hydrolysis” for short) (chymotrypsin) was “frees the daunorubicin”.

For “polycarboxylated linear polymer of 2-N-acryloylamino-2-hydroxymethyl-1,3-propanediol substituted by the -Gly-Gly-L-Tyr-L-Leu-Daunorubicin sequence [Example 2]”, the “derivative … after chymotrypsic hydrolysis” value (chymotrypsin) was “liberates leucyl-daunorubicin”, the “T/C (survival of the animals treated relative to the control animals)” value (3 LL cells; 8x200 microgram equivalents of Daunorubicin, FIG. 5) was 145 and the “inhibition of tumor growth relative to the control lot” value (3 LL cells) was “significant inhibition of tumor growth”. For the same compound, the “spleen mass / atrophy” value [1] was “mass comparable to that of the healthy animals”.

With “polycarboxylated linear polymer of 2-N-acryloylamino-2-hydroxymethyl-1,3-propanediol substituted by the Gly-L-Phe-L-Ala-L-Leu-Daunorubicin sequence [Example 3]” the “derivative … after chymotrypsic hydrolysis” value (chymotrypsin) was “frees alaninyl-leucyl-daunorubicin”.

With “polycarboxylated linear polymer of 2-N-acryloylamino-2-hydroxymethyl-1,3-propanediol substituted by the Gly-L-Pro-L-Arg-L-Leu-Daunorubicin sequence [Example 6]” the “derivative of daunorubicin liberated after trypsic hydrolysis” value (trypsin) was “freeing leucyl-daunorubicin”.
